Target: T1, APOL1 (Homo sapiens, UniProt O14791)
T1 sequence (O14791 1-398 S342G/I384M): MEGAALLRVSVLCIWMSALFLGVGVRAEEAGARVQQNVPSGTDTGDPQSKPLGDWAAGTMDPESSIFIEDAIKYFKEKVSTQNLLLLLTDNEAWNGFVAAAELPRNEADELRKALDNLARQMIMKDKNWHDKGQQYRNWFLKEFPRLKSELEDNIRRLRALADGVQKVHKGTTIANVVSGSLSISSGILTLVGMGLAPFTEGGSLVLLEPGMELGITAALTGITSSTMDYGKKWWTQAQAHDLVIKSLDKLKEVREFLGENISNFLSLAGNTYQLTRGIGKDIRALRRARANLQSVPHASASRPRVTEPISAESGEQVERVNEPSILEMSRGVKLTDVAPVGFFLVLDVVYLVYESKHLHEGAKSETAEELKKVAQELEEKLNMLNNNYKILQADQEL
Assay: MultiTox-Fluor Multiplex Cytotoxicity Assay in tet-inducible APOL1 T-REx-HEK293 cells (cell rescue, ratio of dead to live cells)
Format: cell-based
Conditions: tet-inducible transgenic APOL1 T-REx-HEK293 cell lines, 50 ng/mL tet, 24 hours; read-out: IP50 (i.e., IC50 for cell proliferation)
Outline: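 T-REx-HEK293 cells with tet-inducible APOL1 were treated with compound (10 μM top, 10-point 3-fold dilution, duplicate) plus 50 ng/mL tetracycline for 24 h at 37° C, in DMEM with 2% tet-free FBS. MultiTox-Fluor protease signals gave a dead/live ratio, normalized to no tet (100% viability) and tet alone (0%).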

| Compound | IC50 |
| --- | --- |
| CCc1cc2c(s1)CCOC21CCN(Cc2cn(CCCN3CC(O)C3)nn2)CC1 [Compound 1115] | 500 to 1000 nM |
| Cc1nnc(Cn2cc(CN3CC[C@]4(C[C@@H]3C)OCCc3c4sc(C(F)(F)F)c3CO)cn2)o1 [Compound 923] | < 100 nM |
| C[C@H]1C[C@@]2(CCN1Cc1cnn(CC(O)C(C)(C)O)c1)OCCc1c2sc(C(F)(F)F)c1CO (some centres unmarked) [Compound 960] | < 100 nM |
| CCn1cc(CN2CC[C@]3(C[C@@H]2C)OCCc2cc(Cl)sc23)cn1 [Compound 702] | < 100 nM |
| CCc1cc2c(s1)CCO[C@@]21CCN(Cc2ncco2)[C@@H](C)C1 [Compound 284] | 500 to 1000 nM |
| CCc1cc2c(s1)CCO[C@@]21CCN(C[C@H]2C[C@@H](NS(=O)(=O)C(F)(F)F)C2)[C@@H](C)C1 [Compound 411] | 100 to 500 nM |
| CCc1cc2c(s1)CCO[C@@]21CCN(Cc2cn(Cc3nc(C)no3)nn2)[C@@H](C)C1 [Compound 165] | < 100 nM |
| CCc1cc2c(s1)CCO[C@@]21CCN(Cc2cn(CCSC(F)(F)F)nn2)[C@@H](C)C1 [Compound 22] | < 100 nM |
| C[C@H]1C[C@@]2(CCN1CC(O)C(N)=O)OCCc1cc(CC(F)F)sc12 (some centres unmarked) [Compound 596] | < 100 nM |
| C[C@H]1C[C@@]2(CCN1CC(O)c1ccc(F)c(F)c1)OCCc1cc(CC(F)F)sc12 (some centres unmarked) [Compound 605] | 100 to 500 nM |
| C[C@H]1C[C@@]2(CCN1Cc1cnn(CCS(C)(=O)=O)c1)OCC(O)c1cc(C(F)(F)C(F)F)sc12 (stereo partly drawn) [Compound 1012, (2′S, 7R)-2′-methyl-1′-[[1-(2-methylsulfonylethyl)pyrazol-4-yl]methyl]-2-(1,1,2,2-tetrafluoroethyl)spiro[4,5-dihydrothieno[2,3-c]pyran-7,4′-piperidine]-4-ol] | < 100 nM |
| CCc1cc2c(s1)CCO[C@@]21CCN(Cc2cnc(NCc3ccc(O)cn3)nc2)[C@@H](C)C1 [Compound 206] | < 100 nM |
| COc1nccc(CN2CC[C@]3(C[C@@H]2C)OC[C@H](O)c2cc(Cl)sc23)n1 [Compound 805] | 500 to 1000 nM |
| C[C@H]1C[C@@]2(CCN1Cc1cnn(CC(O)C3(CO)CCC3)c1)OCCc1c2sc(C(F)(F)F)c1CO (some centres unmarked) [Compound 935] | < 100 nM |
| CCc1cc2c(s1)CCO[C@@]21CCN(Cc2cn(Cc3nnc[nH]3)nn2)[C@@H](C)C1 [Compound 65] | 100 to 500 nM |
| C[C@H]1C[C@@]2(CCN1Cc1cnn(CCS(C)(=O)=O)c1)OCCc1sc(Cl)cc12 [Compound 518] | < 100 nM |
| CCc1cc2c(s1)CCO[C@@]21CCN(Cc2cn(CC3(S(C)(=O)=O)CCOCC3)nn2)[C@@H](C)C1 [Compound 155] | < 100 nM |
| C[C@H]1C[C@@]2(CCN1Cc1cnn(C3CS(=O)(=O)C3)c1)OCCc1c2sc(C(F)(F)F)c1CO [Compound 907] | < 100 nM |
| C[C@H]1C[C@@]2(CCN1Cc1cn(C(C)(C)CO)nn1)OCCc1cc(CC(F)F)sc12 [Compound 544] | 500 to 1000 nM |
| C[C@H]1C[C@@]2(CCN1Cc1cn(CCS(C)(=O)=O)nn1)OCCc1sc(C(F)(F)F)cc12 [Compound 525, (2′S,4R)-2′-methyl-1′-[[1-(2-methylsulfonylethyl)triazol-4-yl]methyl]-2-(trifluoromethyl)spiro[6,7-dihydrothieno[3,2-c]pyran-4,4′-piperidine]] | < 100 nM |

| Compound | IC50 |
| --- | --- |
| CCc1cc2c(s1)CCOC21CCN(Cc2nc(-c3ccccc3)[nH]c2Cl)CC1 [Compound 1145] | 500 to 1000 nM |
| CCc1cc2c(s1)CCO[C@@]21CCN(Cc2cn(Cc3cnco3)nn2)[C@@H](C)C1 [Compound 34] | < 100 nM |
| CCc1cc2c(s1)CCO[C@@]21CCN(C[C@H]2C[C@@H](NC(=O)C3CCC3(F)F)C2)[C@@H](C)C1 (some centres unmarked) [Compound 325] | < 100 nM |
| CCc1cc2c(s1)CCO[C@@]21CCN(CC2CN(C(=O)[C@@H]3CSC(=O)N3)C2)[C@@H](C)C1 [Compound 467] | < 100 nM |
| CCc1cc2c(s1)CCO[C@@]21CCN(Cc2cn(CCC#N)nn2)[C@@H](C)C1 [Compound 37] | < 100 nM |
| CCc1cc2c(s1)CCO[C@@]21CCN(Cc2cn(CC3(CCO)CC3)nn2)[C@@H](C)C1 [Compound 83] | 100 to 500 nM |
| CCCc1cc2c(s1)CCO[C@@]21CCN(Cc2cn(CCS(C)(=O)=O)nn2)[C@@H](C)C1 [Compound 513] | 100 to 500 nM |
| C[C@H]1C[C@@]2(CCN1Cc1cnn(CC(O)CC(C)(O)C3CC3)c1)OCCc1c2sc(C(F)(F)F)c1CO (some centres unmarked) [Compound 938] | < 100 nM |
| CCc1cc2c(s1)CCO[C@@]21CCN(C[C@H]2C[C@@H](NC(=O)c3cnc4c(c3)CCC4)C2)[C@@H](C)C1 [Compound 316] | < 100 nM |
| Cc1cc(C(=O)N[C@H]2C[C@@H](CN3CC[C@]4(C[C@@H]3C)OCCc3cc(CC(F)F)sc34)C2)on1 [Compound 555] | < 100 nM |
| Cc1ncccc1CN1CC[C@]2(C[C@@H]1C)OC[C@H](O)c1cc(Cl)sc12 [Compound 770] | 100 to 500 nM |
| COCCN1CC[C@]2(C[C@@H]1C)OCCc1cc(CC(F)F)sc12 [Compound 614] | 100 to 500 nM |
| CCc1cc2c(s1)CCO[C@@]21CCN(Cc2cnn(CCO)c2)[C@@H](C)C1 [Compound 269] | < 100 nM |
| CCc1cc2c(s1)CCO[C@@]21CCN(Cc2cn(CC3(OCCO)CCC3)nn2)[C@@H](C)C1 [Compound 104] | 100 to 500 nM |
| CCc1cc2c(s1)CCO[C@@]21CCN(C[C@H]2C[C@@H](NC(=O)OC)C2)[C@@H](C)C1 [Compound 302, methyl N-[3-[[(2′S,4R)-2-ethyl-2′-methyl-spiro[6,7-dihydrothieno[3,2-c]pyran-4,4′-piperidine]-1′-yl]methyl]cyclobutyl]carbamate] | < 100 nM |
| C[C@H]1C[C@@]2(CCN1Cc1ccc3c(c1)n(C)c(=O)n3C)OCCc1cc(CC(F)F)sc12 [Compound 564] | < 100 nM |
| CCc1cc2c(s1)CCOC21CCN(Cc2ccc(C(=O)NC(C)(C)CO)nc2)CC1 [Compound 1047] | < 100 nM |
| CC(C)Cn1cc(CN2CC[C@]3(C[C@@H]2C)OCCc2cc(Cl)sc23)cn1 [Compound 704] | 100 to 500 nM |
| Cc1cc2c(s1)[C@]1(CCN(Cc3cn[nH]c3)[C@@H](C)C1)OCC2 [Compound 1024, (2′S, 7R)-2,2′-dimethyl-1′-(1H-pyrazol-4-ylmethyl)spiro[4,5-dihydrothieno[2,3-c]pyran-7,4′-piperidine]] | < 100 nM |
| C[C@H]1C[C@@]2(CCN1Cc1cnn(Cc3nnnn3C)c1)OCCc1c2sc(C(F)(F)F)c1CO [Compound 914] | < 100 nM |

| Compound | IC50 |
| --- | --- |
| CCc1cc2c(s1)CCOC21CCN(Cc2ccc(C(=O)Nc3ccnn3C)nc2)CC1 [Compound 1052] | < 100 nM |
| CC(C)OC1CO[C@@]2(CCN(Cc3cnn(CCS(C)(=O)=O)c3)[C@@H](C)C2)c2sc(Cl)cc21 (some centres unmarked) [Compound 845] | 100 to 500 nM |
| CCc1cc2c(s1)CCOC21CCN(Cc2cn(CC(O)c3ccccn3)nn2)C(C)C1 (centres unmarked) [Compound 76] | 100 to 500 nM |
| Cc1ccc(CN2CC[C@]3(C[C@@H]2C)OC[C@H](O)c2cc(Cl)sc23)c(C)n1 [Compound 788] | 100 to 500 nM |
| C[C@H]1C[C@@]2(CCN1Cc1cn(CCS(C)(=O)=O)nn1)OCCc1cc(Cl)sc12 [Compound 696, (2′S, 7R)-2-chloro-2′-methyl-1′-[[1-(2-methylsulfonylethyl)triazol-4-yl]methyl]spiro[4,5-dihydrothieno[2,3-c]pyran-7,4-piperidine]] | 100 to 500 nM |
| C[C@H]1C[C@@]2(CCN1Cc1cnn(CC(C)(C)O)c1)OCCc1c2sc(C(F)(F)F)c1CO [Compound 895] | < 100 nM |
| CCc1cc2c(s1)CCOC21CCN(Cc2cn(CCCF)nn2)CC1 [Compound 1099] | 500 to 1000 nM |
| CCc1cc2c(s1)CCO[C@@]21CCN(Cc2ccc(N[C@@H](C)C(C)(C)O)nc2)[C@@H](C)C1 [Compound 211] | < 100 nM |
| C[C@H]1C[C@@]2(CCN1Cc1cnn(CC(O)CC(C)(C)O)c1)OC[C@@H](O)c1cc(C(F)(F)F)sc12 (some centres unmarked) [Compound 977] | < 100 nM |
| C[C@H]1C[C@@]2(CCN1Cc1ccc(F)cn1)OCCc1cc(Cl)sc12 [Compound 665] | 100 to 500 nM |
| CCc1cc2c(s1)CCO[C@@]21CCN(CC2CN(C(=O)Cn3cncn3)C2)[C@@H](C)C1 [Compound 483] | 100 to 500 nM |
| CCc1cc2c(s1)CCO[C@@]21CCN(Cc2cnc(OCC3(N)CCOC3)nc2)[C@@H](C)C1 (some centres unmarked) [Compound 215] | < 100 nM |
| Cc1cc2c(s1)CCO[C@@]21CCN(Cc2cnn(CCS(C)(=O)=O)c2)[C@H](C)C1 [Compound 517] | 100 to 500 nM |
| CCc1cc2c(s1)CCO[C@@]21CCN(C[C@H]2C[C@@H](NC(=O)CC#N)C2)[C@@H](C)C1 [Compound 334] | 100 to 500 nM |
| CCc1cc2c(s1)CCO[C@@]21CCN(Cc2cn(CCS(=O)(=O)c3ccccc3)nn2)[C@@H](C)C1 [Compound 26] | < 100 nM |
| CCc1cc2c(s1)CCO[C@@]21CCN(Cc2cn(C(C)COC)nn2)[C@@H](C)C1 (some centres unmarked) [Compound 130] | 100 to 500 nM |
| C[C@H]1C[C@@]2(CCN1Cc1cnn(CCS(C)(=O)=O)c1)OCCc1cc(C(F)(F)C(F)F)sc12 [Compound 1011, (2′S, 7R)-2′-methyl-1′-[[1-(2-methylsulfonylethyl)pyrazol-4-yl]methyl]-2-(1,1,2,2-tetrafluoroethyl)spiro[4,5-dihydrothieno[2,3-c]pyran-7,4′-piperidine]] | < 100 nM |
| CCc1cc2c(s1)CCO[C@@]21CCN(C[C@H]2C[C@@H](NC(=O)C3CCN(C(C)=O)CC3)C2)[C@@H](C)C1 [Compound 355] | < 100 nM |
| CCc1cc2c(s1)CCO[C@@]21CCN(CC2CN(C(=O)Cc3ccncn3)C2)[C@@H](C)C1 [Compound 441] | < 100 nM |
